Patent publication US20240109853A1 (Shanghai Yao Yuan Biotechnology Co., Ltd., priority 2020, published 2024)
Where a name gives a salt, the structure may show the parent alone. Read-outs that look alike come from different tables or passages of the source.

How the values were obtained:
[1] = test system: ALPK1-dependent NFκB reporter gene activation in HEK293 cells stably expressing an NF-kB reporter (G9 cells); assay: NFκB gene reporter alkaline phosphatase assay; type: cell-based; details: read-out: NFkB assay IC50
From the text: In embodiments, a compound of Formula I, or a subembodiment described herein, is an inhibitor of ALPK1 as measured, for example, in an in vitro kinase assay, or an assay designed to measure the activation of downstream targets of ALPK1 pathway activation, for example NFkB transcriptional activation and the secretion of proinflammatory cytokines and chemokines, such as IL-8, which is also referred to as CXCL-8. In general, the computer program XL fit was used for data analysis, including non-linear regression analysis. The half maximal inhibitory concentration (IC50) was used as the measure of a compound's effectiveness in the assays. IC50 values were determined using the following logistic equation Y=min+(max−min)/(1+(X/IC50^−hillslpoe), where Y is the value at the compound concentration, X. The concentration response curve fitting was conducted using GraphPad Prism version 6.00 software.
An alkaline phosphatase reporter assay system was used to measure inhibition of ALPK1-dependent NFκB reporter gene activation. Briefly, HEK293 cells stably expressing an NF-kB reporter (referred to herein as “G9 cells”) were maintained in DMEM as described above. For the assay, cells were seeded into 96-well plates at a density of 10,000 cells/well in Freestyle™ 293 Expression Medium (ThermoFisher), and allowed to attach overnight. Cells were pretreated with serially diluted compounds for 30 min and then stimulated with D-glycero-D-manno-6-fluoro-heptose-1β-S-ADP. […] NFkB gene activation was detected using the chromogenic substrate, para-nitrophenyl phosphate (pNPP) according to the manufacturer's protocols (pNPP Phosphatase Assay, Beyotime Biotechnology).

ALPK1 = ALPK1 (Homo sapiens (Human), UniProt Q96QP1); assay: ALPK1 in vitro kinase assay (HTRF of TIFA phosphorylation); type: biochemical
ALPK1, sequence (Q96QP1 whole entry): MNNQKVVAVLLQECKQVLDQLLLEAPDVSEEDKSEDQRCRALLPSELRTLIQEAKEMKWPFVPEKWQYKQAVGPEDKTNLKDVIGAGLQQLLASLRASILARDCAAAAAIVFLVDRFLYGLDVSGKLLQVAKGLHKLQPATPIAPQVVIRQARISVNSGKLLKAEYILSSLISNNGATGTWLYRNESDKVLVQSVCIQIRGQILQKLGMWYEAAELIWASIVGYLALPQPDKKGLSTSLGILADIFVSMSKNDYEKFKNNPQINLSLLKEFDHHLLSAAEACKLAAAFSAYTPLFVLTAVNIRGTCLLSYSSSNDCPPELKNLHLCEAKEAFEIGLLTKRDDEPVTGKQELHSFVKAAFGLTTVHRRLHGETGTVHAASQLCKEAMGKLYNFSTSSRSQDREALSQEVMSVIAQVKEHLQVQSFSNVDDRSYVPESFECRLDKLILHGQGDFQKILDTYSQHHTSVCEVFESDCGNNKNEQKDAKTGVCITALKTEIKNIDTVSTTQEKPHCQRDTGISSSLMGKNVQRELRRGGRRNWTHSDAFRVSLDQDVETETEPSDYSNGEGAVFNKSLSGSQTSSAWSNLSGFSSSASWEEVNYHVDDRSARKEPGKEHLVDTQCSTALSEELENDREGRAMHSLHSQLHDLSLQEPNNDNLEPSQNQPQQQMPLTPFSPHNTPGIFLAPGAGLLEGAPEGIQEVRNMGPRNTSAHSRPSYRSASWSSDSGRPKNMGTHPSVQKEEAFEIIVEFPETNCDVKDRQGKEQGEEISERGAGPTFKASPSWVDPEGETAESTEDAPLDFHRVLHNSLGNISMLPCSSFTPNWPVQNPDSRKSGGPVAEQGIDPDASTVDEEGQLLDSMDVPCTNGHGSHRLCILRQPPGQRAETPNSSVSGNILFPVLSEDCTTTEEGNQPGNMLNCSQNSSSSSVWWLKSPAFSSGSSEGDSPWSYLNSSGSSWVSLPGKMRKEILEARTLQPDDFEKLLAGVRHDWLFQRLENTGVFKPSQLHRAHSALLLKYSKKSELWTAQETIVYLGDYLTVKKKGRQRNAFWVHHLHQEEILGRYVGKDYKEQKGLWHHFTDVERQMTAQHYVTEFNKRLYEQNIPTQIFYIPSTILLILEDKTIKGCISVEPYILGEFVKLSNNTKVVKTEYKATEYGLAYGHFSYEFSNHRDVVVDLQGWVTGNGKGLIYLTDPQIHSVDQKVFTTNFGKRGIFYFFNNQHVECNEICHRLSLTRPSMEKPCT

[2] = ALPK1 2 nM, TIFA substrate, ADP-Heptose activator, HTRF readout

Question: Which IC50 [1] does the source give for `C#C[C@@](C)(c1ccc(Cl)cc1)c1csc(NC(=O)N2CCc3cc(N4CCNCC4)ccc3C2)n1` [Example A281, N-(4-(2-(4-chlorophenyl)but-3-yn-2-yl)thiazol-2-yl)-6-(piperazin-1-l)-3,4-dihydroisoquinoline-2(1H)-carboxamide] here?
Answer: 860 nM

Question: For `COc1ccc(C(C)(C)c2csc(NC(=O)NCC3CC(N)C3)n2)cc1` (centres unmarked) [Example A190, 1-((3-aminocyclobutyl)methyl)-3-(4-(2-(4-methoxyphenyl)propan-2-yl)thiazol-2-yl)urea], which IC50 (ALPK1) is on record?
Answer: 458 nM

Question: And the IC50 ([1]; Homo sapiens, HEK293)?
Answer: 3020 nM

Question: For `COc1ccc(C(C)(C)c2csc(NC(=O)NCc3ccc(N4CCC(N)C4)cn3)n2)cc1` (centres unmarked) [Example A200, 1-((5-(3-aminopyrrolidin-1-yl)pyridin-2-yl)methyl)-3-(4-(2-(4-methoxyphenyl)propan-2-yl)thiazol-2-yl)urea], which IC50 (ALPK1) is on record?
Answer: 43 nM

Question: What about the IC50 ([1]; Homo sapiens, HEK293) of the same compound?
Answer: 520 nM

Question: With `CC(C)(c1ccc(Br)cc1)c1csc(NC(=O)NCc2ccc(N3CCN(CCO)CC3)nc2)n1` [Example A010, 1-(4-(2-(4-bromophenyl)propan-2-yl)thiazol-2-yl)-3-((6-(4-(2-hydroxyethyl)piperazin-1-yl)pyridin-3-yl)methyl)urea] as the compound, how does the IC50 (ALPK1) read?
Answer: 200 nM

Question: And the IC50 ([1]; Homo sapiens, HEK293)?
Answer: 3950 nM

Question: Which IC50 (ALPK1) does the source give for `C#C[C@](C)(c1ccc(Cl)cc1)c1csc(NC(=O)N2CC(CN3CCNCC3)C2)n1` (stereo in doubt) [Example A291, N-(4-(2-(4-chlorophenyl)but-3-yn-2-yl)thiazol-2-yl)-3-(piperazin-1-ylmethyl)azetidine-1-carboxamide] here?
Answer: 109 nM

Question: What about the IC50 ([1]; Homo sapiens, HEK293) of the same compound?
Answer: 1650 nM

Question: What does the source list for `C#C[C@@](C)(c1ccc(Cl)cc1)c1csc(NC(=O)NC(C)(C)CO)n1` (stereo in doubt) [Example A294, 1-(4-(2-(4-chlorophenyl)but-3-yn-2-yl)thiazol-2-yl)-3-(1-hydroxy-2-methylpropan-2-yl)urea]?
Answer: IC50 (ALPK1): 285 nM; IC50 ([1]; Homo sapiens, HEK293): 3040 nM

Question: How did the IC50 (ALPK1) turn out when `CC(C)(c1ccc(Br)cc1)c1csc(NC(=O)NCc2ccc(OCCN)cc2)n1` [Example A212, 1-(4-(2-aminoethoxy)benzyl)-3-(4-(2-(4-bromophenyl)propan-2-yl)thiazol-2-yl)urea] was run?
Answer: 289 nM

Question: What about the IC50 ([1]; Homo sapiens, HEK293) of the same compound?
Answer: 2750 nM

Question: For `C#CC(C)(c1ccc(Cl)cc1)c1csc(NC(=O)N(CCO)CCO)n1` (centres unmarked) [Example A253, 3-(4-(2-(4-chlorophenyl)but-3-yn-2-yl)thiazol-2-yl)-1,1-bis(2-hydroxyethyl)urea], which IC50 (ALPK1) is on record?
Answer: 172 nM

Question: And the IC50 ([1]; Homo sapiens, HEK293)?
Answer: 3050 nM

Question: With `CC(C)(c1ccc(Br)cc1)c1csc(NC(=O)NCc2cccc(N3CCNCC3)n2)n1` [Example A182, 1-(4-(2-(4-bromophenyl)propan-2-yl)thiazol-2-yl)-3-((6-(piperazin-1-yl)pyridin-2-yl)methyl)urea] as the compound, how does the IC50 (ALPK1) read?
Answer: 163 nM

Question: What about the IC50 ([1]; Homo sapiens, HEK293) of the same compound?
Answer: 4300 nM

Question: Which IC50 ([1]; Homo sapiens, HEK293) does the source give for `COc1ccc(C(C)(C)c2csc(NC(=O)NCc3cc(F)c(C4CCNCC4)c(F)c3)n2)cc1` [Example A151, 1-(3,5-difluoro-4-(piperidin-4-yl)benzyl)-3-(4-(2-(4-methoxyphenyl)propan-2-yl)thiazol-2-yl)urea hydrochloride] here?
Answer: 950 nM

Question: For `COc1ccc(C(C)(C)c2csc(NC(=O)NCc3cncnc3)n2)cc1` [Example A104, 1-(4-(2-(4-methoxyphenyl)propan-2-yl)thiazol-2-yl)-3-(pyrimidin-5-ylmethyl)urea], which IC50 (ALPK1) is on record?
Answer: 223 nM

Question: What about the IC50 ([1]; Homo sapiens, HEK293) of the same compound?
Answer: 1690 nM

Question: For `COc1ccc(C(C)(C)c2csc(NC(=O)NCCCC(=O)NC3CCN(C)CC3)n2)cc1` [Example A070, 4-(3-(4-(2-(4-methoxyphenyl)propan-2-yl)thiazol-2-yl)ureido)-N-(1-methylpiperidin-4-yl)butanamide], which IC50 (ALPK1) is on record?
Answer: 140 nM

Question: And the IC50 ([1]; Homo sapiens, HEK293)?
Answer: 16900 nM

Question: Which results are given for `COc1ccc(C(C)(C)c2csc(NC(=O)NCc3ccc(N4CCNCC4)cc3)n2)cc1` [Example A053, 1-(4-(2-(4-methoxyphenyl)propan-2-yl)thiazol-2-yl)-3-(4-(piperazin-1-yl)benzyl)urea]?
Answer: IC50 (ALPK1): 43 nM; IC50 ([1]; Homo sapiens, HEK293): 760 nM

Question: What does the source list for `CC(C)(c1ccc(Br)cc1)c1csc(NC(=O)NCc2ccc(N3CCNCC3)c(F)c2)n1` [Example A050, 1-(4-(2-(4-bromophenyl)propan-2-yl)thiazol-2-yl)-3-(3-fluoro-4-(piperazin-1-yl)benzyl)urea]?
Answer: IC50 (ALPK1): 26 nM; IC50 ([1]; Homo sapiens, HEK293): 1210 nM

Question: `COc1ccc(C(C)(C)c2csc(NC(=O)NCCCCNc3ccccc3)n2)cc1` [Example A147, 1-(4-(2-(4-methoxyphenyl)propan-2-yl)thiazol-2-yl)-3-(4-(phenylamino)butyl)urea] was tested. Which IC50 ([1]; Homo sapiens, HEK293) did it give?
Answer: 1910 nM

Question: Which IC50 ([1]; Homo sapiens, HEK293) does the source give for `CC(C)(c1ccc(I)cc1)c1csc(NC(=O)NCc2cnc(N3CCNCC3)nc2)n1` [Example A178, 1-(4-(2-(4-iodophenyl)propan-2-yl)thiazol-2-yl)-3-((2-(piperazin-1-yl)pyrimidin-5-yl)methyl)urea] here?
Answer: 920 nM

Question: How did the IC50 ([1]; Homo sapiens, HEK293) turn out when `C#C[C@@](C)(c1ccc(Cl)cc1)c1csc(NC(=O)N2CCc3cc(N4CCNCC4)ccc3C2)n1` [Example A260, (S)-N-(4-(2-(4-chlorophenyl)but-3-yn-2-yl)thiazol-2-yl)-6-(piperazin-1-yl)-3,4-dihydroisoquinoline-2(1H)-carboxamide] was run?
Answer: 1080 nM

Question: `CC(C)(c1ccc(Br)cc1)c1csc(NC(=O)NCc2ccc(C3CCNCC3)c(F)c2)n1` [Example A222, 1-(4-(2-(4-bromophenyl)propan-2-yl)thiazol-2-yl)-3-(3-fluoro-4-(piperidin-4-yl)benzyl)urea] was tested. Which IC50 ([1]; Homo sapiens, HEK293) did it give?
Answer: 930 nM

Question: `C#C[C@](C)(c1ccc(Cl)cc1)c1csc(NC(=O)N2CCc3cc(N4CCNCC4)ccc3C2)n1` (stereo in doubt) [Example A280, N-(4-(2-(4-chlorophenyl)but-3-yn-2-yl)thiazol-2-yl)-6-(piperazin-1-yl)-3,4-dihydroisoquinoline-2(1H)-carboxamide] was tested. Which IC50 ([1]; Homo sapiens, HEK293) did it give?
Answer: 2180 nM

Question: Which IC50 ([1]; Homo sapiens, HEK293) does the source give for `CC(C)(c1ccc(Br)cc1)c1csc(NC(=O)NCc2ccc(N3CCNCC3)c(Br)c2)n1` [Example A097, 1-(3-bromo-4-(piperazin-1-yl)benzyl)-3-(4-(2-(4-bromophenyl)propan-2-yl)thiazol-2-yl)urea] here?
Answer: 1420 nM

Question: With `COc1ccc(C(C)(CO)c2csc(NC(=O)NC(C)c3ccc(N4CCNCC4)cc3)n2)cc1` (centres unmarked) [Example A235, 1-(4-(1-hydroxy-2-(4-methoxyphenyl)propan-2-yl)thiazol-2-yl)-3-(1-(4-(piperazin-1-yl)phenyl)ethyl)urea] as the compound, how does the IC50 ([1]; Homo sapiens, HEK293) read?
Answer: 27000 nM

Question: For `C#C[C@](C)(c1ccc(Cl)cc1)c1nc(NC(=O)NCCO)sc1Cl` [Example A248, (R)-1-(5-chloro-4-(2-(4-chlorophenyl)but-3-yn-2-yl)thiazol-2-yl)-3-(2-hydroxyethyl)urea], which IC50 ([1]; Homo sapiens, HEK293) is on record?
Answer: 2730 nM

Question: For `C#C[C@@](C)(c1ccc(Cl)cc1)c1nc(NC(=O)NCCO)sc1Cl` [Example A247, (S)-1-(5-chloro-4-(2-(4-chlorophenyl)but-3-yn-2-yl)thiazol-2-yl)-3-(2-hydroxyethyl)urea], which IC50 ([1]; Homo sapiens, HEK293) is on record?
Answer: 1850 nM

Question: `CC(C)(c1ccc(Br)cc1)c1csc(NC(=O)NCc2cccc(N3CCNCC3)c2)n1` [Example A005, 1-(4-(2-(4-bromophenyl)propan-2-yl)thiazol-2-yl)-3-(3-(piperazin-1-yl)benzyl)urea] was tested. Which IC50 ([1]; Homo sapiens, HEK293) did it give?
Answer: 1150 nM

Question: With `C#C[C@](C)(c1ccc(Cl)cc1)c1csc(NC(=O)NCC(C)O)n1` (stereo in doubt) [Example A318, 1-(4-(2-(4-chlorophenyl)but-3-yn-2-yl)thiazol-2-yl)-3-(2-hydroxypropyl)urea] as the compound, how does the IC50 [1] read?
Answer: 2240 nM

Question: With `CC(C)(c1ccc(Cl)cc1)c1csc(NC(=O)NCc2cnc(N3CCC(N)C3)nc2)n1` (centres unmarked) [Example A068, 1-((2-(3-aminopyrrolidin-1-yl)pyrimidin-5-yl)methyl)-3-(4-(2-(4-chlorophenyl)propan-2-yl)thiazol-2-yl)urea] as the compound, how does the IC50 (ALPK1) read?
Answer: 269 nM

Question: Which IC50 (ALPK1; [2]) does the source give for `COc1ccc(C(C)(C)c2csc(NC(=O)c3ccc(N4CCNCC4)cc3Cl)n2)cc1` [Example B008, 2-chloro-N-(4-(2-(4-methoxyphenyl)propan-2-yl)thiazol-2-yl)-4-(piperazin-1-yl)benzamide] here?
Answer: 37 nM

Question: How did the IC50 (ALPK1; [2]) turn out when `C#CC(C)(c1ccc(Cl)cc1)c1csc(NC(=O)c2ccc(N3CCNCC3)cc2F)n1` (centres unmarked) [Example B065, N-(4-(2-(4-chlorophenyl)but-3-yn-2-yl)thiazol-2-yl)-2-fluoro-4-(piperazin-1-yl)benzamide] was run?
Answer: 215 nM

Question: With `C#CC(CC)(c1ccc(Br)cc1)c1csc(NC(C)=O)n1` (centres unmarked) [Example D008, N-(4-(3-(4-bromophenyl)pent-1-yn-3-yl)thiazol-2-yl)acetamide] as the compound, how does the IC50 (ALPK1; [2]) read?
Answer: 143 nM

Question: With `COCC(C)(c1ccccc1)c1csc(NC(=O)c2c(F)cc(N3CCNCC3)cc2F)n1` (centres unmarked) [Example C004, 2,6-difluoro-N-(4-(1-methoxy-2-phenylpropan-2-yl)thiazol-2-yl)-4-(piperazin-1-yl)benzamide] as the compound, how does the IC50 (ALPK1; [2]) read?
Answer: 22 nM

Question: How did the IC50 ([1]; Homo sapiens, HEK293) turn out when `C#CC(C)(c1ccc(Br)cc1)c1csc(NC(=O)NCCN2CCNCC2)n1` (centres unmarked) [Example A239, 1-(4-(2-(4-bromophenyl)but-3-yn-2-yl)thiazol-2-yl)-3-(2-(piperazin-1-yl)ethyl)urea] was run?
Answer: 850 nM

Question: `C#CC(C)(c1ccc(OC)cc1)c1csc(NC(=O)NC(C)c2ccc(N3CCNCC3)cc2)n1` (centres unmarked) [Example A234, 1-(4-(2-(4-methoxyphenyl)but-3-yn-2-yl)thiazol-2-yl)-3-(1-(4-(piperazin-1-yl)phenyl)ethyl)urea] was tested. Which IC50 ([1]; Homo sapiens, HEK293) did it give?
Answer: 2670 nM
